Results from ChEMBL document CHEMBL3879901, “Substituted isoquinolin-1(2H)-ones, and methods of use thereof” (2012).

How the values were obtained:
[1] = target: Phosphatidylinositol 4,5-bisphosphate 3-kinase catalytic subunit gamma isoform (Homo sapiens, UniProt P48736); assay: Inhibition of recombinant human C-terminal His6-tagged p110gamma expressed in insect cells using phosphatidylinositol as substrate in presence of gamma-32P-ATP after 5 mins by thin layer chromatographic method
[2] = Antiproliferative activity against Balb/c mouse splenic B cells preincubated for 30 mins followed by LPS or F(ab')2 donkey anti-mouse IgM and recombinant mouse IL4 stimulation measured after 72 hrs by Alamar Blue reduction assay; format: functional, cell-based
[3] = target: PI3-kinase p110-delta/p85-alpha (Homo sapiens, UniProt O00329); assay: Inhibition of N-terminal His6-tagged recombinant full-length human p110delta/untagged recombinant full length p85alpha expressed in baculovirus infected Sf21 cells using phosphatidylinositol as substrate in presence of gamma-32P-ATP after 5 mins by thin layer chromatographic method
Chain of PI3-kinase p110-delta/p85-alpha (P27986 whole entry): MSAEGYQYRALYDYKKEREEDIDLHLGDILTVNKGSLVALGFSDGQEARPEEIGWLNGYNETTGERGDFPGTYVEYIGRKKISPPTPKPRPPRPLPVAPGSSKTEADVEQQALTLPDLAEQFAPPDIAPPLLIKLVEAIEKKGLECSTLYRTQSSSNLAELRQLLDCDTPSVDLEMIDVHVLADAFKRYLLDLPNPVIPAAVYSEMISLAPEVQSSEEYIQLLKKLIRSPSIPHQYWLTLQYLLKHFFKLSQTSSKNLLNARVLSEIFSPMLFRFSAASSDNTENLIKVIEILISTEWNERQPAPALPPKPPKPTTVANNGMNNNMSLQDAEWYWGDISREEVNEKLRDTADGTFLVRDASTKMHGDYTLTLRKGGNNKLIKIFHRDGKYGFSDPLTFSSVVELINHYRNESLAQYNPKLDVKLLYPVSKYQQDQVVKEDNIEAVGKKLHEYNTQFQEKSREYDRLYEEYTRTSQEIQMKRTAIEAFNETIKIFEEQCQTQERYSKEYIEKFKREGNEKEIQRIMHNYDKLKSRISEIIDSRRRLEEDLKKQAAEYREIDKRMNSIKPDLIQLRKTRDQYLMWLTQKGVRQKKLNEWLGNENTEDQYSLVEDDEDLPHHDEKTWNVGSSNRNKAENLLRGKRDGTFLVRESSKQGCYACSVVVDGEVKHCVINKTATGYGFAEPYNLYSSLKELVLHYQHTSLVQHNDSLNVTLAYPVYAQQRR
Chain of PI3-kinase p110-delta/p85-alpha (O00329 whole entry): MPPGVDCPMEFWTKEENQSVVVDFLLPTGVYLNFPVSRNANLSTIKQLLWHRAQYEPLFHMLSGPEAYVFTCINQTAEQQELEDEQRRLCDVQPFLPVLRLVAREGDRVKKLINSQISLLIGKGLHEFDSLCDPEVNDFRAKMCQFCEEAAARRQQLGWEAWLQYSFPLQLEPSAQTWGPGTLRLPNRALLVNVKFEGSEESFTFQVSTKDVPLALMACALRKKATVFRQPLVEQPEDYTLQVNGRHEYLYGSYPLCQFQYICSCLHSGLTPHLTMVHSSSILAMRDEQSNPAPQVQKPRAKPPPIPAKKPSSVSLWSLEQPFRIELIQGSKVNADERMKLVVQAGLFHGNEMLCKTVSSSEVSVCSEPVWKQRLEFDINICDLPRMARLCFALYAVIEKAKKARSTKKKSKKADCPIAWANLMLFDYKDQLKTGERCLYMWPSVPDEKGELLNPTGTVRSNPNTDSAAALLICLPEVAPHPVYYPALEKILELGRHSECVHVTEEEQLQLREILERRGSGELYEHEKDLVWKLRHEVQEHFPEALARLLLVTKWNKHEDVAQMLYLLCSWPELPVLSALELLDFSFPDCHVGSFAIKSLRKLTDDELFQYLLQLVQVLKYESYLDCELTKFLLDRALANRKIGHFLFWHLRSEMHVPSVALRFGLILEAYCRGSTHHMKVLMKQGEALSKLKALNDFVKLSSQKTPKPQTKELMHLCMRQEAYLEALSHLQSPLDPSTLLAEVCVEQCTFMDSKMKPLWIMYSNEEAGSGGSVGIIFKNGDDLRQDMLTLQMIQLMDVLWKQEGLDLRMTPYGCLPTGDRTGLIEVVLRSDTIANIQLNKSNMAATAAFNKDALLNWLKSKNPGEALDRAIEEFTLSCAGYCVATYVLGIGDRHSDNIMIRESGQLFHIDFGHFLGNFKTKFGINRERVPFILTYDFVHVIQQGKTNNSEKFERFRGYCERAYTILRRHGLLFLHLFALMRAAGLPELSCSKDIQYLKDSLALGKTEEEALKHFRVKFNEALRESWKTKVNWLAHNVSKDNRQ

[4] = target: PI3-kinase p110-alpha/p85-alpha (Homo sapiens, UniProt P42336); assay: Inhibition of N-terminal His6-tagged recombinant full-length human p110alpha/untagged recombinant full length human p85alpha expressed in baculovirus infected Sf21 cells using phosphatidylinositol as substrate in presence of gamma-32P-ATP after 5 mins by thin layer chromatographic method
Chain of PI3-kinase p110-alpha/p85-alpha (P27986 whole entry): as the sequence (P27986 whole entry) above
Chain of PI3-kinase p110-alpha/p85-alpha (P42336 whole entry): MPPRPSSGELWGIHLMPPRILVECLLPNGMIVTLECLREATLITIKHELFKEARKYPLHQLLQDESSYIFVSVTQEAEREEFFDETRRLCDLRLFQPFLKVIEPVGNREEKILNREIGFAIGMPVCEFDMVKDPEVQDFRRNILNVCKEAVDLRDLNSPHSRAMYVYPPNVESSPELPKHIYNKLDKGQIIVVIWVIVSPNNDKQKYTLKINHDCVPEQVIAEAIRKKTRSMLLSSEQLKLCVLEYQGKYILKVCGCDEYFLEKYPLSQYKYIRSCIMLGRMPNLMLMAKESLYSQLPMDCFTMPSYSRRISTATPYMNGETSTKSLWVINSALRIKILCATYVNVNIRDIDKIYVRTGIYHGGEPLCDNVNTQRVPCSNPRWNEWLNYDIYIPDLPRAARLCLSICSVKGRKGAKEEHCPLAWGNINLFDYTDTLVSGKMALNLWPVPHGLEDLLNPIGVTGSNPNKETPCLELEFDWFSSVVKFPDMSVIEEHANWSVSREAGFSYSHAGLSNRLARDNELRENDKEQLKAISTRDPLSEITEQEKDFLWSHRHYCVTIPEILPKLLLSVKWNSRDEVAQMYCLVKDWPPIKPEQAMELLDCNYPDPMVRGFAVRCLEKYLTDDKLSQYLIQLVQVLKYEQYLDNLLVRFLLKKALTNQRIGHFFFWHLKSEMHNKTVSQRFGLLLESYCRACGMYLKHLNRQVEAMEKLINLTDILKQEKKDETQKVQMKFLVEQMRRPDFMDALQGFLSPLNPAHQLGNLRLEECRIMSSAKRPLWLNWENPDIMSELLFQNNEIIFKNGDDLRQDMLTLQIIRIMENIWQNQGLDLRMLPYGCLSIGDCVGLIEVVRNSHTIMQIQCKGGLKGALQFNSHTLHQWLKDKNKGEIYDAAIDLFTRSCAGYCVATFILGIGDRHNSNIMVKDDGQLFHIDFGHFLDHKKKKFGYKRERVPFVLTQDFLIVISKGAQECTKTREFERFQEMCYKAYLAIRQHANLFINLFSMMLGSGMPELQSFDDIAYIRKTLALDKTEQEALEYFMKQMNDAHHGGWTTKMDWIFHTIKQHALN

PI3K p110 beta/p85 alpha = PI3K p110 beta/p85 alpha (Homo sapiens, UniProt P42338); assay: Inhibition of N-terminal His6-tagged recombinant full-length human p110beta/untagged recombinant full length p85alpha expressed in baculovirus infected Sf21 cells using phosphatidylinositol as substrate in presence of gamma-32P-ATP after 5 mins by thin layer chromatographic method
Chain of PI3K p110 beta/p85 alpha (P27986 whole entry): as the sequence (P27986 whole entry) above
Chain of PI3K p110 beta/p85 alpha (P42338 whole entry): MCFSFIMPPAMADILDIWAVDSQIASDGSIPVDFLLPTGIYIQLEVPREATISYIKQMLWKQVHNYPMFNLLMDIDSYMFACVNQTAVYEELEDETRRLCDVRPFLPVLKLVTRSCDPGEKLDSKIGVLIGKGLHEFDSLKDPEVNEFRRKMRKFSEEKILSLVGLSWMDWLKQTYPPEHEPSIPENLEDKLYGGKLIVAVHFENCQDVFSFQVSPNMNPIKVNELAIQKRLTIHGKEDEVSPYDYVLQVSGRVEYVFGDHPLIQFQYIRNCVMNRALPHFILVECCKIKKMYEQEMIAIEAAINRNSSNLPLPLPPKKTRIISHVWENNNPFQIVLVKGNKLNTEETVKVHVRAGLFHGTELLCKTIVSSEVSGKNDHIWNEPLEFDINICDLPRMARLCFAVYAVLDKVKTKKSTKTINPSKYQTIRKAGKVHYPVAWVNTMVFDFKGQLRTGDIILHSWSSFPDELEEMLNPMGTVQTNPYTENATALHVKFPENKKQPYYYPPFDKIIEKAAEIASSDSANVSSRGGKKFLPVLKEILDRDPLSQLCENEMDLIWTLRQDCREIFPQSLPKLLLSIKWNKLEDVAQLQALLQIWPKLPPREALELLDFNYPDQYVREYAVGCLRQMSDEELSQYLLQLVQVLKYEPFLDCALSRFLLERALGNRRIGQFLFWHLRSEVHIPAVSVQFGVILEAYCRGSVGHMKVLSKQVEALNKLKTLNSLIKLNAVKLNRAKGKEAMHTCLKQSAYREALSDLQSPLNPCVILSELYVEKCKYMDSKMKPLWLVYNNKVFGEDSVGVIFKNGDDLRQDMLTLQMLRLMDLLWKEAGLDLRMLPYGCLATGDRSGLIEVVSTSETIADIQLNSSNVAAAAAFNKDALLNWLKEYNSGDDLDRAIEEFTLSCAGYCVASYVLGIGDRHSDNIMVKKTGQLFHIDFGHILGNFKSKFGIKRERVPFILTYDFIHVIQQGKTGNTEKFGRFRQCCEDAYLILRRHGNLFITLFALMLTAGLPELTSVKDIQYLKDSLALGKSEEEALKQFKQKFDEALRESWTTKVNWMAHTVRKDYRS

Chain of Phosphatidylinositol 4,5-bisphosphate 3-kinase catalytic subunit gamma isoform (P48736 whole entry, canonical isoform): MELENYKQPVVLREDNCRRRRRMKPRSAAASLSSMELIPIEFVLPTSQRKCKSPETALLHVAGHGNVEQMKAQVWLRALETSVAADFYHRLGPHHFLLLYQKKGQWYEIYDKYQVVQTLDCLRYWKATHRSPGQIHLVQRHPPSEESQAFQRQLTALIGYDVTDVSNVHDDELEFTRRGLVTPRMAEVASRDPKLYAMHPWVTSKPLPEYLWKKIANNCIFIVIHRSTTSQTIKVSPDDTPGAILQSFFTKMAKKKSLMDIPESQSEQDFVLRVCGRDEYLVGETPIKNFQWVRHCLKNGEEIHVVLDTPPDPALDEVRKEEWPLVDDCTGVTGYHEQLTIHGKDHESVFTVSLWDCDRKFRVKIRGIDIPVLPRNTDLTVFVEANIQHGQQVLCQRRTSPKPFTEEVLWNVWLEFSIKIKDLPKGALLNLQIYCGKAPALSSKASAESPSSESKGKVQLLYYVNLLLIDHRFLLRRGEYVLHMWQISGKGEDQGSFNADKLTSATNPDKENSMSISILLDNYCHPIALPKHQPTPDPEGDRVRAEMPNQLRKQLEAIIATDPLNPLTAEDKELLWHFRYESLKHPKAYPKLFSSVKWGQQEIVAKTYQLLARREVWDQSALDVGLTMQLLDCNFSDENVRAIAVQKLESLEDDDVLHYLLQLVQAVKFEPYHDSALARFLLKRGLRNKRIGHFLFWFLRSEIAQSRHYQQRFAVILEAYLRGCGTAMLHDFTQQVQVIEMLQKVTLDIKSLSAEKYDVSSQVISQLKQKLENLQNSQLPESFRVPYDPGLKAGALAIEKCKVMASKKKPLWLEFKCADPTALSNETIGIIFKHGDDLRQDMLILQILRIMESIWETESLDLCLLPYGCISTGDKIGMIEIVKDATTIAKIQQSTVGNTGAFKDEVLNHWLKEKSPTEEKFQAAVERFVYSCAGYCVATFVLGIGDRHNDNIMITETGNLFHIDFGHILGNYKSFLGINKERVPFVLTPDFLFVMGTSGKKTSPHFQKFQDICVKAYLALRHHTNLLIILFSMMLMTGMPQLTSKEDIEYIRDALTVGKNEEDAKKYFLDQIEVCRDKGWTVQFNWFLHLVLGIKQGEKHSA

SMILES | IC50 [1] | IC50 [3] | IC50 [4] | IC50 (PI3K p110 beta/p85 alpha) | EC50 [2]
Cc1cccc2cc([C@H](C)Nc3ncnc4[nH]cnc34)n(-c3cccc(F)c3)c(=O)c12 | < 100 nM | – | – | – | < 100 nM
Cc1ccccc1-n1c(Cn2nc(-c3ccc4nc(N)[nH]c4c3)c3c(N)ncnc32)cc2cccc(C)c2c1=O | < 100 nM | < 100 nM | – | – | < 100 nM
Cc1ccccc1-n1c(Cn2nc(-c3ccc4nc(N)oc4c3)c3c(N)ncnc32)cc2cccc(C)c2c1=O | < 100 nM | < 100 nM | – | – | < 100 nM
Cc1cccc2cc([C@H](C)Nc3nc(N)nc4[nH]cnc34)n(-c3ccccc3)c(=O)c12 | < 100 nM | < 100 nM | – | – | –
Cc1ccccc1-n1c(Cn2nc(-c3nn[nH]n3)c3c(N)ncnc32)cc2cccc(C)c2c1=O | < 100 nM | < 100 nM | – | – | < 10000 nM
Cc1cccnc1-n1c(Cn2nc(-c3ccc4oc(N)nc4c3)c3c(N)ncnc32)cc2cccc(C)c2c1=O | < 100 nM | < 100 nM | – | – | –
Cc1cccc2cc(C(C)Nc3ncnc4[nH]cnc34)n(C3CCCC3)c(=O)c12 (stereo unspecified) | < 100 nM | < 100 nM | – | – | < 100 nM
CC(=O)Nc1nc2ccc(-c3nn(Cc4cc5cccc(C)c5c(=O)n4C4CCC4)c4ncnc(N)c34)cc2s1 | – | < 100 nM | < 100000 nM | < 1000 nM | < 100 nM
Cc1cccc2cc(Cn3nc(-c4cccc(O)c4)c4c(N)ncnc43)n(-c3ccccc3Cl)c(=O)c12 | – | < 100 nM | > 10000 nM | < 10000 nM | < 100 nM
Cc1cccc2cc(Cn3nc(-c4cccc(O)c4)c4c(N)ncnc43)n(C(C)C)c(=O)c12 | – | < 100 nM | > 10000 nM | < 1000 nM | < 100 nM
Cc1cccc2cc(Cn3nc(-c4cc(O)cc(F)c4)c4c(N)ncnc43)n(C3CC3)c(=O)c12 | – | < 100 nM | < 1000 nM | < 100 nM | < 100 nM
Cc1cccc2cc(Cn3nc(-c4cc(O)cc(F)c4)c4c(N)ncnc43)n(-c3ccccc3O)c(=O)c12 | – | < 100 nM | < 10000 nM | < 1000 nM | < 100 nM

Second part, led by results:

IC50 [1] | IC50 [3] | IC50 [4] | IC50 (PI3K p110 beta/p85 alpha) | SMILES | EC50 [2]
< 100 nM | < 100 nM | – | – | Cc1cccc2cc(Cn3nc(-c4ccc5nc(N)[nH]c5c4)c4c(N)ncnc43)n(-c3ccccc3)c(=O)c12 | < 100 nM
< 100 nM | < 100 nM | – | – | CC(=O)Nc1nc2ccc(-c3nn(Cc4cc5cccc(C)c5c(=O)n4-c4ccccc4C)c4ncnc(N)c34)cc2o1 | –
< 100 nM | < 100 nM | – | – | Cc1ccccc1-n1c(Cn2nc(CF)c3c(N)ncnc32)cc2cccc(C)c2c1=O | < 100 nM
< 100 nM | < 100 nM | – | – | Cc1cccc2cc(Cn3nc(-c4ccc5oc(N)nc5c4)c4c(N)ncnc43)n(C3CCC3)c(=O)c12 | < 100 nM
< 100 nM | < 100 nM | – | – | Cc1cccc2cc([C@H](C)Nc3nc(F)nc4[nH]cnc34)n(-c3ccccc3)c(=O)c12 | < 100 nM
< 100 nM | < 100 nM | – | – | Cc1cccc2cc([C@H](C)Nc3ncnc4[nH]nc(Cl)c34)n(-c3ccccc3)c(=O)c12 | –
< 100 nM | – | – | – | CC(=O)Nc1nc2ccc(-c3nn(Cc4cc5cccc(C)c5c(=O)n4-c4ccccc4)c4ncnc(N)c34)cc2[nH]1 | –
– | < 100 nM | < 100000 nM | < 100 nM | Nc1ncnc2c1c(-c1cc(O)cc(F)c1)nn2Cc1cc2cccc(Cl)c2c(=O)n1C1CC1 | < 100 nM
– | < 100 nM | > 10000 nM | > 10000 nM | Cc1cccc2cc(Cn3nc(-c4cccc(O)c4)c4c(N)ncnc43)n(-c3ccccc3)c(=O)c12 | < 100 nM
– | < 100 nM | < 10000 nM | < 1000 nM | CCc1ccccc1-n1c(Cn2nc(-c3cc(O)cc(F)c3)c3c(N)ncnc32)cc2cccc(C)c2c1=O | < 100 nM
< 100 nM | < 100 nM | – | – | Cc1cccc2cc([C@H](C)Nc3nc(N)ncc3C(F)(F)F)n(-c3ccccc3)c(=O)c12 | –
– | < 1000 nM | > 10000 nM | > 10000 nM | Cc1cccc2cc(Cn3nc(I)c4c(N)ncnc43)n(C3CCCCC3)c(=O)c12 | < 10000 nM
– | < 100 nM | < 10000 nM | < 10000 nM | Cc1cccc2cc(Cn3nc(I)c4c(N)ncnc43)n(C3CC3)c(=O)c12 | < 1000 nM
– | < 100 nM | < 100000 nM | < 100 nM | CC(=O)Nc1nc2ccc(-c3nn(Cc4cc5cccc(Cl)c5c(=O)n4C4CC4)c4ncnc(N)c34)cc2s1 | < 100 nM
